Reference: patent publication US9572788B2, “Cell permeable inhibitors of anaphase promoting complex” (President and Fellows of Harvard College, priority 2014, dated 2017)

Columns and labels:
APC [1] = target: T1, APC (Homo sapiens, UniProt P30260); experiment: Cdc20/Cdh1 binding assay in HeLa cells (APC immunoprecipitation); assay type: cell-based
T1 construct: endogenous in cells; host or cells: HeLa cells (synchronised; some with Mad2/BubR1 siRNA and cyclin B1-delta107 adenovirus)
Experimental: HeLa cells in DMEM 10% FBS were plated in T25 flasks at 20% confluence one day prior to the experiment. They were then synchronized by a double thymidine block (18 h for the first block, 8 h release and another 18 h for the second block, thymidine concentration: 2 mM). For analysis of Cdh1 binding, cells were released into […] from the second thymidine block for 13 h and then washed into fresh medium. Six h later, cells were treated with 12 μM proTAME or proAAME or 0.06% DMSO for 2 h and then collected by trypin digestion. For analysis of Cdc20 binding, cells were transfected with indicated siRNAs during the first release from thymidine block after two washes with DPBS (CellGro 21-030-CV) and addition of 6.3 ml OptiMEM. A volume (79 μl) of 20 μl Control siRNA#3 or a 1:1 mix of 20 μl MAD2 siRNA and BubR1 siRNA (Dharmacon D-004101-01, 5′-[…]-3′ (SEQ ID NO: 11)) was mixed in 1381 μl OptiMEM in a tube, 23.7 μl OligoFectamine were mixed with 94.1 μl OptiMEM in a second tube. After 5 min incubation at RT, the tubes contents were mixed and siRNA-reagent complexes were allowed to form for 20 min at RT. The transfection mixes were added to cells in OptiMEM and FBS was added to 10% after 5 h transfection. Cyclin B1-Δ107 expressing adenovirus (1:100) was added at the start of the second thymidine block and kept in the medium for all subsequent steps. Cells were treated at 10 h after release with 100 nM okadaic acid, 25 μg/ml cycloheximide and 12 μM proTAME as indicated. After 2 h treatment, cells were collected by mitotic shake-off. Cell pellets were washed twice with DPBS and flash-frozen with liquid nitrogen and stored at −80° C. until use. Cell lysis and APC immunoprecipitation were performed as described above.

HeLa H2B-GFP cells = experiment: Mitotic entry monitored by time-lapse imaging; assay type: cell-based, human; settings: for Average time of mitotic entry / Median time of mitotic entry: Fig 4E
APC [2] = target: APC (Xenopus laevis, UniProt A0A1L8ESF3); experiment: Cyclin B1-luciferase reporter degradation (luciferase assay) in mitotic Xenopus egg extract; assay type: biochemical; settings: mitotic Xenopus extract
Experimental: The extract was incubated at room temperature and 3 μL samples were taken at 0, 20, 40 and 60 min.

U2OS-H2B-GFP cells = experiment: Fluorescence live cell imaging with survival (Cox) analysis, U2OS; assay type: cell-based, human; settings: proTAME 12 μM
Experimental: Mitotic duration and cell fate were determined by manual inspection of the movies and plotted as Kaplan-Meier curves. The hatch marks on the Kaplan-Meier curved indicate mitotic duration endpoints of censored cells. Includes the combined results of five independent experiments. […] Pairwise comparison between proTAME and proTAME+apcin-M tested using a Cox proportional hazards model stratified by date, using data from only the experimental blocks in which both proTAME and proTAME+apcin were tested.
Movies were manually analyzed using Nikon Elements software or Image J.
Plates were inserted into a covered chamber supplied with humidified 5% CO2 and mounted onto a motorized microscope stage (Prior Scientific). […] A Hamamatsu ORCA cooled CCD camera collected the images with 2×2 binning using Nikon Elements software (version 3.0). Movies were manually analyzed using Nikon Elements software or ImageJ. Mitotic duration was defined as the time from nuclear envelope breakdown until anaphase, in the case of normal mitosis, or until exit from prolonged mitosis as indicated by cytoplasmic blebbing accompanied by changes in chromatin as detected by H2B-GFP.
The Cox proportional hazards model is a semiparameteric approach to modeling time-to-event data, in which covariates are assumed to have constant proportional effects over time relative to a baseline hazard function that can take any form. In this case, stratification on “person” (the individual who analyzed the movie) and “date” (the date the assay was run) allow the baseline hazard function to differ across experimental blocks, but assume a fixed effect of treatment across experimental blocks. The model is thus: hi(t|Z=j)=hj(t)exp(β1×apcini+β2×apcinMi+β3×proTAMEi+β4×proTAMEi:apcinMi+β5×proTAMEi:apcini), j=1 . . . […] This model was fit separately to cells treated with control siRNA or Mad2 siRNA. All statistical analysis was carried out in R 3.0.0 using the functions available as part of the survival package.

[3] = 12 μM proTAME added at 0 hr after release from thymidine block
[4] = 12 μM proTAME added at 2 hrs after release
[5] = 12 μM proTAME added at 4 hrs after release
[6] = 12 μM proTAME added at 6 hrs after release
[7] = 12 μM proTAME added at 8 hrs after release

T1 sequence (P30260 whole entry): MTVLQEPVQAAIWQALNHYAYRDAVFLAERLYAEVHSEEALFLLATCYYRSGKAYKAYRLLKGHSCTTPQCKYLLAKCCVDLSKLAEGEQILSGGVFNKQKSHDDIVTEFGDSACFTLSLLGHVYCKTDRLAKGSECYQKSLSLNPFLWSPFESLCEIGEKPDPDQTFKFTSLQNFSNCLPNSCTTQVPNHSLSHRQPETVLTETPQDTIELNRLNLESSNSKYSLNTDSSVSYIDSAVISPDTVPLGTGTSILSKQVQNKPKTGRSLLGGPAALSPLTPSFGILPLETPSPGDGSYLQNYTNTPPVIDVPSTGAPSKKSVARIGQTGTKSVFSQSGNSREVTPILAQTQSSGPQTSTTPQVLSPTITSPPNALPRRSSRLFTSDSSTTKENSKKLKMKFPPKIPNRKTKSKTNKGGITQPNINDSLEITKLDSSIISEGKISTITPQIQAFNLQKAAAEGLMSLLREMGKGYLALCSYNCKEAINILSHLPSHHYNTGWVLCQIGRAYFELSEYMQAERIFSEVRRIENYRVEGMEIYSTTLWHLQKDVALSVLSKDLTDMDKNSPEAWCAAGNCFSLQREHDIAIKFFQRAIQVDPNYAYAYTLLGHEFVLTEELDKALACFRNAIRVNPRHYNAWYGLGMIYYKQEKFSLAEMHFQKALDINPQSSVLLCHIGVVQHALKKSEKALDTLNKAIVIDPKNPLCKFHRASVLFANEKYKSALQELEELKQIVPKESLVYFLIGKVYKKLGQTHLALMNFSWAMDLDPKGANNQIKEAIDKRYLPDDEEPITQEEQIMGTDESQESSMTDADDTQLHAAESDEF
APC (Xenopus laevis, UniProt A0A1L8ESF3), sequence (A0A1L8ESF3 entry or part of it): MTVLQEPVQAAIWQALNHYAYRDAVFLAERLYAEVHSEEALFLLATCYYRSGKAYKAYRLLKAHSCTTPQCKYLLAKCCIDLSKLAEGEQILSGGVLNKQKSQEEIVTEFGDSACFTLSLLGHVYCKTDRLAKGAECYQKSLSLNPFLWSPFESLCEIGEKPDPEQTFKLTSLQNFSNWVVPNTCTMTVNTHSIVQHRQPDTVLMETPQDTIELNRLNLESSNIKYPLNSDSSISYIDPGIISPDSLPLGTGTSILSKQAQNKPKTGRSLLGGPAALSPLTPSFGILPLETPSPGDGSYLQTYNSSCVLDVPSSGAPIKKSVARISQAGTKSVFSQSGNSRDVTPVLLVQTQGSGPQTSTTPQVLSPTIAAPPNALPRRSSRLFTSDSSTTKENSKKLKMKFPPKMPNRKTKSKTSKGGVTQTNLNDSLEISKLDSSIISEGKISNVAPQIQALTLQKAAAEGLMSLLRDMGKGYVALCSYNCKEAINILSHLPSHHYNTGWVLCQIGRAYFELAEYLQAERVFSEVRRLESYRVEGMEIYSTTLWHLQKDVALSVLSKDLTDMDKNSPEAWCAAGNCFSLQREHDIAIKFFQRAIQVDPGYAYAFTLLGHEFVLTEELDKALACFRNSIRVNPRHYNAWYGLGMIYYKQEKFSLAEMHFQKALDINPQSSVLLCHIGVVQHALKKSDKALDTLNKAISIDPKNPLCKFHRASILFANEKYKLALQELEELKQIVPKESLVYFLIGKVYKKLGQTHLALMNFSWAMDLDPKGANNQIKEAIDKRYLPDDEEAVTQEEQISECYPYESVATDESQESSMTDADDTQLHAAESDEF
APC (Xenopus laevis, UniProt A0A1L8ESF3), sequence (Q6DFD4 entry or part of it, further chain): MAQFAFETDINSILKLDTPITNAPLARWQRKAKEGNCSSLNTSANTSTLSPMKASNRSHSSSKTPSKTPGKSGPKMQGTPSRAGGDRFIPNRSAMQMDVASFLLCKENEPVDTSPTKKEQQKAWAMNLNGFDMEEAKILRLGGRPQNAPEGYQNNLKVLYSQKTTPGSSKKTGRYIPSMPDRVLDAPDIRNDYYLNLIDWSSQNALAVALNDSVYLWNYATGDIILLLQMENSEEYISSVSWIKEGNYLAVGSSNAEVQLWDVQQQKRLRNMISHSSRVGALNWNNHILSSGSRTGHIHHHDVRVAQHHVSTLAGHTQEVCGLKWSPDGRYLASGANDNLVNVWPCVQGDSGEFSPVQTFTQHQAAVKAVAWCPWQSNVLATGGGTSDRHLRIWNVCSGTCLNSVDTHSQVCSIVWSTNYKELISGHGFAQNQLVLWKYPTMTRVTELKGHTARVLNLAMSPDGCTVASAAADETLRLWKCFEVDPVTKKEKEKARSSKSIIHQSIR

COC(=O)[C@H](CCCN/C(=N\C(=O)OCOC(=O)Cc1ccccc1)NC(=O)OCOC(=O)Cc1ccccc1)NS(=O)(=O)c1ccc(C)cc1 [proTAME]
Dissociation of Cdc20 from the APC (APC [1]; HeLa arrested by nondegradable cyclin B, 12 μM): induced significant dissociation of Cdc20 from the APC, but only if SAC proteins were depleted by RNAi
Cdh1 association with the APC (APC [1]; HeLa cells in G1, 12 μM): inhibited Cdh1 association with the APC
Reduction in Cdc20 binding to the APC (APC [1]; HeLa, 12 μM plus 10 μM MG132 for 2 hours): 30%
Average time of mitotic entry (HeLa H2B-GFP cells; [3]): 712.8 min
Median time of mitotic entry (HeLa H2B-GFP cells; [3]): 696 min
Average time of mitotic entry (HeLa H2B-GFP cells; [4]): 669.0 min
Median time of mitotic entry (HeLa H2B-GFP cells; [4]): 660 min
Average time of mitotic entry (HeLa H2B-GFP cells; [5]): 636.6 min
Median time of mitotic entry (HeLa H2B-GFP cells; [5]): 624 min
Average time of mitotic entry (HeLa H2B-GFP cells; [6]): 619.4 min
Median time of mitotic entry (HeLa H2B-GFP cells; [6]): 612 min
Average time of mitotic entry (HeLa H2B-GFP cells; [7]): 622.6 min
Median time of mitotic entry (HeLa H2B-GFP cells; [7]): 612 min
Delay in mitotic entry (HeLa H2B-GFP cells; added 6 hour or later after release): did not delay mitotic entry
Delay in mitotic entry (HeLa H2B-GFP cells; added during release from a double thymidine block): 2 h
Inhibition of cyclin B-luciferase proteolysis (APC [2]): efficiently inhibits cyclin B-luciferase proteolysis
Median mitotic duration (U2OS-H2B-GFP cells; Table 7, apcin or apcin-M 25 μM): 180
% rate of mitotic exit (U2OS-H2B-GFP cells; relative to DMSO control, Cox model, apcin/apcin-M 25 μM): 3.63%
